Laboratory results as given in patent publication US7135466B2 (Kirin Beer Kabushiki Kaisha, priority 1999, dated 2006).
Read-outs that look alike come from different tables or passages of the source.

Experiments:
[1] = molecular target: T1, PDGF-Ra (Homo sapiens, UniProt P16234); assay: Inhibitory activity against PDGF-Ra phosphorylation by PDGF-AA stimulation using G292; type: cell-based; conditions: > means inhibition at indicated concentration not more than 50%, < and << not less than 50%; read-out: PDGF (E) IC50
T1 construct: host or cells: G-292 human osteosarcoma cells
Procedure, shortened: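 G-292 human osteosarcoma cells in 0.1% FBS medium overnight, given compound for 1 hr at 37° C, then PDGF-AA 50 ng/ml for 5 min. Lysates captured on anti-phosphotyrosine (PY-20) plates and probed with anti-PDGF-Ra plus HRP secondary; absorbance at 450 nm.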

[2] = molecular target: T2, c-kit (Homo sapiens, UniProt P10721); assay: Inhibitory activity against c-kit autophosphorylation (MO7e cells, h-SCF); type: cell-based; conditions: for inhibition at 1 µM: Mo7e, figure in parentheses in −( ), at 1000 nM; for IC50: h-SCF stimulation
T2 construct: MO7e (human megakaryocytic leukemia cell line) which had been arrested for 20 hr; endogenous in cells; host or cells: MO7e human megakaryocytic leukemia cell line
Procedure, shortened: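 First, human megakaryocytic leukemia MO7e cells arrested 20 hr receive compound for one hour. Second, SCF stimulation (50 ng/ml) runs 5 min, after which cells are solubilized. Third, tyrosine-phosphorylated c-kit in the lysate is quantified by sandwich ELISA with absorbance at 450 nm.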

[3] = MO7e cells, read-out: c-kit IC50

T1 sequence (P16234 24-1089): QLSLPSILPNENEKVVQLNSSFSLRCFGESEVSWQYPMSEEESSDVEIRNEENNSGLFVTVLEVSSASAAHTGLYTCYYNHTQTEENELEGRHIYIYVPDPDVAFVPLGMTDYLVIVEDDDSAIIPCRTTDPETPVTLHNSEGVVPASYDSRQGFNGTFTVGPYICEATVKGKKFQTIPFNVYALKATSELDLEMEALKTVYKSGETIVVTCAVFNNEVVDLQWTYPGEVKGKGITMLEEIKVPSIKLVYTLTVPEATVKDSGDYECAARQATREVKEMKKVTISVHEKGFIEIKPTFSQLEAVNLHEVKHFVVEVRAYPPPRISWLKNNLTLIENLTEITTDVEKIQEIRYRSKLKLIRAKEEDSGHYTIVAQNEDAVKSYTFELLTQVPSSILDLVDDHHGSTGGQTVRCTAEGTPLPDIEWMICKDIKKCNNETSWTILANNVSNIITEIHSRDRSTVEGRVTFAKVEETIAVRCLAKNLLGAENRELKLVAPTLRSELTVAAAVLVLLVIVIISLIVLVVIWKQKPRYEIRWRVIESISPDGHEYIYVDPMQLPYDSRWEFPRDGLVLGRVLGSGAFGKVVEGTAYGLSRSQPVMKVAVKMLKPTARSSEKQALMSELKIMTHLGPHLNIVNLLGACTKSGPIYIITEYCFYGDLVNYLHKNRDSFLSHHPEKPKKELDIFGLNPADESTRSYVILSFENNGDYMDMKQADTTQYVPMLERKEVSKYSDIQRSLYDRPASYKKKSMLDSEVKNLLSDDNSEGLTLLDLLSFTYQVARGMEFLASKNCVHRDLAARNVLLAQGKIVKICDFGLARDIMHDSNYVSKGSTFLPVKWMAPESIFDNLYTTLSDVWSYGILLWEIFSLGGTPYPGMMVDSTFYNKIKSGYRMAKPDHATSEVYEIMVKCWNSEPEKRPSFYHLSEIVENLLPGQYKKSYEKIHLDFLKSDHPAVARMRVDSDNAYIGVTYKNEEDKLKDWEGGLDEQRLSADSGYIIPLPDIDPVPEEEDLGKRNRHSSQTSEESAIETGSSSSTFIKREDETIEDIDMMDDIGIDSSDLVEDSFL
T2 sequence (P10721 26-976): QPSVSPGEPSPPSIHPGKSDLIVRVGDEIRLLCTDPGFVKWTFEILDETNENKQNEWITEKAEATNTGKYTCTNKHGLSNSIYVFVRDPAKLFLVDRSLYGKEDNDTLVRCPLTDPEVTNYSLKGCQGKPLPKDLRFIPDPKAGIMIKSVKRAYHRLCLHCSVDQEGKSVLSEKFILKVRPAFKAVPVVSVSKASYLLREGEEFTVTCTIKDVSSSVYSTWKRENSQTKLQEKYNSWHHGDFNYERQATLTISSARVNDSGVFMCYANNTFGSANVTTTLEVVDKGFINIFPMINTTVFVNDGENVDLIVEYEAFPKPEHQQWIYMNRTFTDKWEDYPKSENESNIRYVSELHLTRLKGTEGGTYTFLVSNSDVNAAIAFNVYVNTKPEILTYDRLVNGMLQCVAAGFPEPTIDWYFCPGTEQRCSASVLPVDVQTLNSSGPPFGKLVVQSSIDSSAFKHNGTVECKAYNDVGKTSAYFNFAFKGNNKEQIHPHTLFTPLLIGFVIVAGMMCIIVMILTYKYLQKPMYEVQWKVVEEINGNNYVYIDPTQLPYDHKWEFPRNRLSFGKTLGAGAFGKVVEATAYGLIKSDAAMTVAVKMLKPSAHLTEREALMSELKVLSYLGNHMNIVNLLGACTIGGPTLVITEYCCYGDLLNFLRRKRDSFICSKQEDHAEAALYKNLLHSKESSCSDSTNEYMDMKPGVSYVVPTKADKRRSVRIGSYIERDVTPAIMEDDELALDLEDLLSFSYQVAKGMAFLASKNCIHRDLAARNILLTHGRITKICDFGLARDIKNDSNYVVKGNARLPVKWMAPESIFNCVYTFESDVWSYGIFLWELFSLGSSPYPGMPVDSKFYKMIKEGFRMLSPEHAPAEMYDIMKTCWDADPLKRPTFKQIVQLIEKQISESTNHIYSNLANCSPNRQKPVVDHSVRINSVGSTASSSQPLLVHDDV

Row | IC50 [1] [nM] | inhibition at 1 µM [2] [%] | IC50 [2, 3] [nM] | SMILES | IC50 ([2]; c-kit IC50, MO7e cells) [nM]
1 | 53 | 27 | – | COc1cc2nccc(Oc3ccc(NC(=S)NC(=O)c4ccc(CCl)cc4)c(F)c3)c2cc1OC [Example 996, N-[4-(Chloromethyl)benzoyl]-N′-{4-[(6,7-dimethoxy-4-quinolyl)oxy]-2-fluorophenyl}thiourea] | –
2 | 9 | – | 264 | CCc1ccc(C(=O)NC(=S)Nc2ccc(Oc3ccnc4cc(OC)c(OC)cc34)c(F)c2)cc1 [Example 997, N-{4-[(6,7-Dimethoxy-4-quinolyl)oxy]-3-fluorophenyl}-N′-(4-ethylbenzoyl)thiourea] | –
3 | 25 | – | 591 | CCCc1ccc(C(=O)NC(=S)Nc2ccc(Oc3ccnc4cc(OC)c(OC)cc34)c(F)c2)cc1 [Example 998, N-{4-[(6,7-Dimethoxy-4-quinolyl)oxy]-3-fluorophenyl}-N′-(4-propylbenzoyl)thiourea] | –
4 | 29 | 45 | – | CCCCc1ccc(C(=O)NC(=S)Nc2ccc(Oc3ccnc4cc(OC)c(OC)cc34)c(F)c2)cc1 [Example 999, N-(4-Butylbenzoyl)-N′-{4-[(6,7-dimethoxy-4-quinolyl)oxy]-3-fluorophenyl}thiourea] | –
5 | 3 | – | 771 | COc1cc2nccc(Oc3ccc(NC(=S)NC(=O)c4ccc(CCl)cc4)cc3F)c2cc1OC [Example 1000, N-[4-(Chloromethyl)benzoyl]-N′-{4-[(6,7-dimethoxy-4-quinolyl)oxy]-3-fluorophenyl}thiourea] | –
6 | < 10 | 34 | – | CCCc1ccc(C(=O)NC(=S)Nc2ccc(Oc3ccnc4cc(OC)c(OC)cc34)c(Cl)c2)cc1 [Example 1001, N-{3-Chloro-4-[(6,7-dimethoxy-4-quinolyl)oxy]phenyl}-N′-(4-propylbenzoyl)thiourea] | –
7 | < 10 | 16 | – | COc1cc2ncnc(Oc3ccc(NC(=S)NC(=O)c4ccc(CCl)cc4)cc3)c2cc1OC [Example 1002, N-[4-(Chloromethyl)benzoyl]-N′-{4-[(6,7-dimethoxy-4-quinazolinyl)oxy]phenyl}thiourea] | –
8 | 24 | – | 628 | COc1cc2nccc(Oc3ccc(NC(=S)NC(=O)c4ccc(C)cc4C)cc3)c2cc1OC [Example 1003, N-{4-[(6,7-Dimethoxy-4-quinolyl)oxy]phenyl}-N′-(2,4-dimethylbenzoyl)thiourea] | –
9 | 10 | – | 877 | COc1cc2nccc(Oc3ccc(NC(=S)NC(=O)c4cc(C)ccc4C)cc3)c2cc1OC [Example 1004, N-{4-[(6,7-Dimethoxy-4-quinolyl)oxy]phenyl}-N′-(2,5-dimethylbenzoyl)thiourea] | –
10 | 28 | – | 674 | COc1cc2nccc(Oc3ccc(NC(=S)NC(=O)c4cccc(C)c4C)cc3)c2cc1OC [Example 1005, N-{4-[(6,7-Dimethoxy-4-quinolyl)oxy]phenyl}-N′-(2,3-dimethylbenzoyl)thiourea] | –
11 | 21 | – | 243 | COc1cc2nccc(Oc3ccc(NC(=S)NC(=O)c4cc(Cl)cc(Cl)c4)cc3)c2cc1OC [Example 1009, N-(3,5-Dichlorobenzoyl)-N′-{4-[(6,7-dimethoxy-4-quinolyl)oxy]phenyl}thiourea] | –
12 | 10 | – | 320 | COc1cc2nccc(Oc3ccc(NC(=S)NC(=O)c4cccc(C)c4C)cc3Cl)c2cc1OC [Example 1018, N-{3-Chloro-4-[(6,7-dimethoxy-4-quinolyl)oxy]phenyl}-N′-(2,3-dimethylbenzoyl)thiourea] | –
13 | 22 | – | 187 | COc1cc2nccc(Oc3ccc(NC(=S)NC(=O)c4cc(C)cc(C)c4)cc3Cl)c2cc1OC [Example 1019, N-{3-Chloro-4-[(6,7-dimethoxy-4-quinolyl)oxy]phenyl}-N′-(3,5-dimethylbenzoyl)thiourea] | –
14 | 28 | – | 202 | COc1cc2nccc(Oc3ccc(NC(=S)NC(=O)Cc4ccccc4)cc3)c2cc1OC [Example 1022, N-{4-[(6,7-Dimethoxy-4-quinolyl)oxy]phenyl}-N′-(2-phenylacetyl)thiourea] | –
15 | 22 | – | 116 | COc1cc2nccc(Oc3ccc(NC(=S)NC(=O)CC4CCCCC4)cc3)c2cc1OC [Example 1023, N-(2-Cyclohexylacetyl)-N′-{4-[(6,7-dimethoxy-4-quinolyl)oxy]phenyl}thiourea] | –
16 | 11 | – | 141 | COc1cc2nccc(Oc3ccc(NC(=S)NC(=O)Cc4ccccc4)c(F)c3)c2cc1OC [Example 1024, N-{4-[(6,7-Dimethoxy-4-quinolyl)oxy]-2-fluorophenyl}-N′-(2-phenylacetyl)thiourea] | –
17 | 15 | – | 194 | COc1ccccc1CCC(=O)NC(=S)Nc1ccc(Oc2ccnc3cc(OC)c(OC)cc23)cc1 [Example 1025, N-{4-[(6,7-Dimethoxy-4-quinolyl)oxy]phenyl}-N′-[3-(2-methoxyphenyl)propanoyl]thiourea] | –
18 | < 10 | – | 545 | COc1cc2nccc(Oc3ccc(NC(=S)NC(=O)CCc4ccccc4)cc3F)c2cc1OC [Example 1028, N-{4-[(6,7-Dimethoxy-4-quinolyl)oxy]-3-fluorophenyl}-N′-(3-phenylpropanoyl)thiourea] | –
19 | 5 | – | 126 | COc1cc2nccc(Oc3ccc(NC(=S)NC(=O)CCC4CCCC4)cc3F)c2cc1OC [Example 1029, N-(3-Cyclopentylpropanoyl)-N′-{4-[(6,7-dimethoxy-4-quinolyl)oxy]-3-fluorophenyl}thiourea] | –
20 | 14 | – | 337 | COc1cc2nccc(Oc3ccc(NC(=S)NC(=O)CCC4CCCC4)cc3Cl)c2cc1OC [Example 1030, N-{3-Chloro-4-[(6,7-dimethoxy-4-quinolyl)oxy]phenyl}-N′-(3-cyclopentylpropanoyl)thiourea] | –
21 | 10 | – | 254 | COc1cc2nccc(Oc3ccc(NC(=S)NC(=O)COCc4ccccc4)c(F)c3)c2cc1OC [Example 1031, N-[2-(Benzyloxy)acetyl]-N′-{4-[(6,7-dimethoxy-4-quinolyl)oxy]-2-fluorophenyl}thiourea] | –
22 | < 10 | – | 321 | COc1cc2nccc(Oc3ccc(NC(=S)NC(=O)COCc4ccccc4)cc3F)c2cc1OC [Example 1032, N-[2-(Benzyloxy)acetyl]-N′-{4-[(6,7-dimethoxy-4-quinolyl)oxy]-3-fluorophenyl}thiourea] | –
23 | < 10 | – | 414 | COc1cc2nccc(Oc3ccc(NC(=S)NC(=O)c4ccc(C)s4)cc3F)c2cc1OC [Example 1040, N-{4-[(6,7-Dimethoxy-4-quinolyl)oxy]-3-fluorophenyl}-N′-[(5-methyl-2-thienyl)carbonyl]thiourea] | –
24 | 12 | – | 98 | CCN(CC)C(=O)NC(=S)Nc1ccc(Oc2ccnc3cc(OC)c(OC)cc23)cc1 [Example 1041, N-{4-[(6,7-Dimethoxy-4-quinolyl)oxy]phenyl}-{[(diethylamino)carbonyl]amino}methanethioamide] | –

Row | SMILES | IC50 [1] [nM] | inhibition at 1 µM [2] [%] | IC50 [2, 3] [nM] | IC50 ([2]; c-kit IC50, MO7e cells) [nM]
25 | COc1cc2nccc(Oc3ccc(NC(=S)NC(=O)N(CCCl)CCCl)cc3)c2cc1OC [Example 1042, N-{4-[(6,7-Dimethoxy-4-quinolyl)oxy]phenyl}-[{[di(2-chloroethyl)amino]carbonyl}amino]methanethioamide] | 39 | – | – | 107
